Laboratory results: patent US9233978B2, “6-fused heteroaryldihydropyrimidines for the treatment and prophylaxis of hepatitis B virus infection” (Hoffmann-La Roche Inc., priority 2014, dated 2016)
pEC50: −log10 of the molar value. Values after ≈ are worked out from the molar mass of the structure shown. Blank lines part the entries; values can stand above or below the molecule they belong to.

Legend:
HBV = assay: Anti-HBV activity in vitro, HepG2.2.15 cells, extracellular HBV DNA by qPCR; type: cell-based; details: Hepatitis B virus, HepG2.2.15, 120 h, HepG2.2.15 cells; HBV replication inhibited by 50%, extracellular HBV DNA by qPCR; five days after compound treatment; read-out: EC50
Excerpt: HepG2.2.15 and HepDE19 are stably-transfected cell lines containing the HBV genome. Both cell lines are derived from the hepatoblastoma cell line Hep G2 (American Type Culture Collection, ATCC® HB-8065™) by the published procedures described in references: MA Selles et al. Proc. Natl. Acad. Sci. USA 1987, 84, 1005-1009 and H Guo et al. Journal of Virology 2007, 81, 12472-12484, respectively. Both cell lines were maintained in Dulbecco's modified Eagle's medium (DMEM)-F12 medium supplemented with 10% fetal bovine serum, 100 U/mL penicillin, 100 μg/mL streptomycin, and 0.5 mg/mL of G418.
While HepG2.2.15 cells constitutively support HBV replication and production of virus particles, HepDE19 cells are inducible by tetracycline. Addition of 1 μg/mL tetracycline in culture medium suppresses HBV replication in HepDE19 cells, whereas switching to tetracycline-free medium resumes this process.
HepG2.2.15 cells were seeded into 96-well plates (3×10^4 cells in 100 μL media per well) and incubated overnight at 37° C. The test compounds were serially half-log diluted in DMSO, then diluted 100 times in culture media. 100 μL of diluted compounds were added into the plates to reach 0.5% final concentration of DMSO in every well. Five days after compound treatment, culture supernatant was collected for further analysis.
For quantitative PCR detection of extracellular HBV DNA, 100 μL of culture supernatant was collected and processed in MagNA Pure 96 Nucleic Acid Purification System (Roche Applied Science) for viral DNA extraction. The extracted samples were subjected to HBV DNA quantification by qPCR.

Lysa solubility = type: physicochemical; details: 0.05 M phosphate buffer (pH 6.5); for solubility thermodynamic: phosphate buffer, pH 6.5, aqueous buffer, thermodynamic from solid
Description: Samples were prepared in duplicate from 10 mM DMSO stock solutions. After evaporation of DMSO with a centrifugal vacuum evaporator, the residue was solved in 0.05 M phosphate buffer (pH 6.5), stirred for one hour and shook for two hours. After one night, the solution was filtered using a microtiter filter plate. Then the filtrate and its 1/10 dilution were analyzed by direct UV measurement or by HPLC-UV. […] The results were in μg/mL. In case the percentage of sample measured in solution after evaporation divided by the calculated maximum of sample amount was over 80%, the solubility was reported as higher than this value.

[1] = Human microsomal metabolic stability; type: in vitro ADME; details: human microsomes 0.5 mg/mL, 1 μM test compound, NADPH, 37° C., pH 7.4, 0-30 minutes
Description: Human Microsomes (BD Gentest) were preincubated with test compound for 10 minutes at 37° C. in 100 mM phosphate buffer, pH 7.4. The reactions were initiated by adding NADPH or NADPH regenerating system to give a final incubation volume of 400 μL. For NADPH system, the final incubations contained 1 μM test compound, 0.5 mg/mL liver microsomal protein, 1 mM NADPH in 100 mM phosphate buffer, pH 7.4. For the NADPH regenerating system, the final incubations contained 1 μM test compound, 0.5 mg/mL liver microsomal protein, 3 mM glucose 6-phosphate, 1 mM NADP, 3 mM MgCl2 and 0.05 mg/mL glucose 6-phosphate dehydrogenase in 100 mM phosphate buffer, pH 7.4. After incubation times of 0, 3, 6, 9, 15 and 30 minutes at 37° C., 1 sample was obtained from each time point and 50 μL of each sample was removed and transferred to 150 μL of methanol solution which was maintained at 4° C. and contained 2 μM tolbutamide as internal standard. Following precipitation and centrifugation, the amount of compound remaining in the samples were determined by LC-MS/MS. Controls of no NADPH or no NADPH regenerating system at zero and 30 minutes were also prepared and analyzed.

Compound: COC(=O)C1=C(CN2CCN3C(=O)N(c4ccc(C(=O)O)nc4)CC3C2)NC(c2nccs2)=N[C@H]1c1ccc(F)cc1Cl (mixture of isomers) [Example 95, 5-[7-[[(4R)-4-(2-chloro-4-fluoro-phenyl)-5-methoxycarbonyl-2-thiazol-2-yl-1,4-dihydropyrimidin-6-yl]methyl]-3-oxo-5,6,8,8a-tetrahydro-1H-imidazo[1,5-a]pyrazin-2-yl]pyridine-2-carboxylic acid]
pEC50 (HBV): 7.96
solubility thermodynamic (Lysa solubility): 307 µg/mL (≈ 490 µM)

Compound: CCOC(=O)C1=C(CN2CCN3C(=O)N(C4CC4)C[C@H]3[C@@H]2C(=O)O)NC(c2nccs2)=N[C@H]1c1cccc(F)c1Cl (single isomer, unassigned) [Example 82A]
pEC50 (HBV): 6.84
Human Microsomal Clearance [1]: 1.7 mL/min/kg

Lysa (Lysa solubility): > 740 µg/mL
Compound: COC(=O)C1=C(CN2CCN3C(=O)N(C4CC4)C[C@H]3[C@@H]2C(=O)O)NC(c2nccs2)=N[C@H]1c1ccc(F)c(F)c1C (single isomer, unassigned) [Example 83A]

Compound: CCOC(=O)C1=C(CN2CCN3C(=O)N(C(C)C)C[C@H]3[C@@H]2C(=O)O)NC(c2nccs2)=N[C@H]1c1cccc(F)c1Cl (single isomer, unassigned) [Example 84A]
pEC50 (HBV): 7.35
Lysa (Lysa solubility): 570 µg/mL

Compound: COC(=O)C1=C(CN2CCN3C(=O)N(C(C)C)C[C@H]3[C@@H]2C(=O)O)NC(c2nccs2)=N[C@H]1c1ccc(F)c(F)c1C (single isomer, unassigned) [Example 85A]
pEC50 (HBV): 6.59
Human Microsomal Clearance [1]: 4.9 mL/min/kg
Lysa (Lysa solubility): > 660 µg/mL

Compound: COC(=O)C1=C(CN2CCN3C(=O)OC(C)(C)[C@]3(CC(=O)O)C2)NC(c2nccs2)=N[C@H]1c1ccc(F)cc1Cl (single isomer, unassigned) [Example 90A]
pEC50 (HBV): 7.02
Human Microsomal Clearance [1]: 0.3 mL/min/kg

Compound: COC(=O)C1=C(CN2CCN3C(=O)N(C4(CC(=O)O)CC4)CC3C2)NC(c2nccs2)=N[C@H]1c1ccc(F)cc1Cl (stereo in doubt) [Example 47, 2-[1-[(8aR)-7-[[(4R)-4-(2-chloro-4-fluoro-phenyl)-5-methoxycarbonyl-2-thiazol-2-yl-1,4-dihydropyrimidin-6-yl]methyl]-3-oxo-5,6,8,8a-tetrahydro-1H-imidazo[1,5-a]pyrazin-2-yl]cyclopropyl]acetic acid]
pEC50 (HBV): 7.29
solubility thermodynamic (Lysa solubility): > 767 µg/mL

Compound: CCOC(=O)C1=C(CN2CCN3C(=O)N(C4(CC(=O)O)CC4)CC3C2)NC(c2nccs2)=N[C@H]1c1cccc(F)c1Cl (stereo in doubt) [Example 48, 2-[1-[(8aR)-7-[[(4R)-4-(2-chloro-3-fluoro-phenyl)-5-ethoxycarbonyl-2-thiazol-2-yl-1,4-dihydropyrimidin-6-yl]methyl]-3-oxo-5,6,8,8a-tetrahydro-1H-imidazo[1,5-a]pyrazin-2-yl]cyclopropyl]acetic acid]
pEC50 (HBV): 7.66
Human Microsomal Clearance [1]: 3.8 mL/min/kg
solubility thermodynamic (Lysa solubility): > 807 µg/mL

Compound: CCOC(=O)C1=C(CN2CCN3C(=O)N([C@@H]4CCCC4C(=O)O)C[C@@H]3C2)NC(c2nccs2)=N[C@H]1c1cccc(F)c1Cl (stereo in doubt) [Example 49, (1S,2R)-2-[(8aS)-7-[[(4R)-4-(2-chloro-3-fluoro-phenyl)-5-ethoxycarbonyl-2-thiazol-2-yl-1,4-dihydropyrimidin-6-yl]methyl]-3-oxo-5,6,8,8a-tetrahydro-1H-imidazo[1,5-a]pyrazin-2-yl]cyclopentanecarboxylic acid]
pEC50 (HBV): 8.10
solubility thermodynamic (Lysa solubility): 312 µg/mL (≈ 494 µM)

Compound: CCOC(=O)C1=C(CN2CCN3C(=O)N([C@@H]4CCCC4C(=O)O)C[C@@H]3C2)NC(c2nccs2)=N[C@H]1c1cccc(F)c1Cl (stereo in doubt) [Example 50, (1R,2R)-2-[(8aS)-7-[[(4R)-4-(2-chloro-3-fluoro-phenyl)-5-ethoxycarbonyl-2-thiazol-2-yl-1,4-dihydropyrimidin-6-yl]methyl]-3-oxo-5,6,8,8a-tetrahydro-1H-imidazo[1,5-a]pyrazin-2-yl]cyclopentanecarboxylic acid]
pEC50 (HBV): 7.82
Human Microsomal Clearance [1]: 3.6 mL/min/kg
solubility thermodynamic (Lysa solubility): 339 µg/mL (≈ 537 µM)

Compound: COC(=O)C1=C(CN2CCN3C(=O)N(c4cccc(C(=O)O)c4)C[C@@H]3C2)NC(c2nccs2)=N[C@H]1c1ccc(F)cc1Cl [Example 29, (R)-6-[(S)-2-(3-Carboxy-phenyl)-3-oxo-hexahydro-imidazo[1,5-a]pyrazin-7-ylmethyl]-4-(2-chloro-4-fluoro-phenyl)-2-thiazol-2-yl-1,4-dihydro-pyrimidine-5-carboxylic acid methyl ester]
pEC50 (HBV): 8.15
Human Microsomal Clearance [1]: 0.3 mL/min/kg

Compound: COC(=O)C1=C(CN2CCN3C(=O)N(C4(CC(=O)O)CC4)C[C@H]3C2)NC(c2nccs2)=N[C@H]1c1ccc(F)cc1Cl [Example 46, 2-[1-[(8aR)-7-[[(4R)-4-(2-chloro-4-fluoro-phenyl)-5-methoxycarbonyl-2-thiazol-2-yl-1,4-dihydropyrimidin-6-yl]methyl]-3-oxo-5,6,8,8a-tetrahydro-1H-imidazo[1,5-a]pyrazin-2-yl]cyclopropyl]acetic acid]
pEC50 (HBV): 7.59
solubility thermodynamic (Lysa solubility): > 744 µg/mL

Compound: CCOC(=O)C1=C(CN2CCN3C(=O)N(CCC(=O)O)C[C@@H]3C2)NC(c2nccs2)=N[C@H]1c1cccc(F)c1Cl [Example 56, (R)-6-[(S)-2-(2-Carboxy-ethyl)-3-oxo-hexahydro-imidazo[1,5-a]pyrazin-7-ylmethyl]-4-(2-chloro-3-fluoro-phenyl)-2-thiazol-2-yl-1,4-dihydro-pyrimidine-5-carboxylic acid ethyl ester]
pEC50 (HBV): 7.59
solubility thermodynamic (Lysa solubility): > 740 µg/mL

Compound: CCOC(=O)C1=C(CN2CCN3C(=O)N([C@@H](C)CC(=O)O)C[C@@H]3C2)NC(c2nccs2)=N[C@H]1c1cccc(F)c1Cl [Example 58, (R)-6-[(S)-2-((S)-2-Carboxy-1-methyl-ethyl)-3-oxo-hexahydro-imidazo[1,5-a]pyrazin-7-ylmethyl]-4-(2-chloro-3-fluoro-phenyl)-2-thiazol-2-yl-1,4-dihydro-pyrimidine-5-carboxylic acid ethyl ester]
pEC50 (HBV): 7.72

Compound: COC(=O)C1=C(CN2CCN3C(=O)N(CCCC(C)(C)CO)CC3C2)NC(c2nccs2)=N[C@H]1c1ccc(F)cc1Cl (stereo partly drawn) [Example 69, Methyl (4R)-4-(2-chloro-4-fluoro-phenyl)-6-[[2-(5-hydroxy-4,4-dimethyl-pentyl)-3-oxo-5,6,8,8a-tetrahydro-1H-imidazo[1,5-a]pyrazin-7-yl]methyl]-2-thiazol-2-yl-1,4-dihydropyrimidine-5-carboxylate]
pEC50 (HBV): 7.89

Compound: CCC(CN1C[C@@H]2CN(CC3=C(C(=O)OC)[C@H](c4ccc(F)cc4Cl)N=C(c4nccs4)N3)CCN2C1=O)C(=O)O (stereo partly drawn) [Example 75, 2-[[(8aS)-7-[[(4R)-4-(2-chloro-4-fluoro-phenyl)-5-methoxycarbonyl-2-thiazol-2-yl-1,4-dihydropyrimidin-6-yl]methyl]-3-oxo-5,6,8,8a-tetrahydro-1H-imidazo[1,5-a]pyrazin-2-yl]methyl]butanoic acid]
pEC50 (HBV): 7.62
solubility thermodynamic (Lysa solubility): > 774 µg/mL

Compound: CCOC(=O)C1=C(CN2CCN3C(=O)N(CC(F)(F)C(=O)O)C[C@@H]3C2)NC(c2nccs2)=N[C@H]1c1ccc(F)c(F)c1C [Example 96, (S)-6-[(S)-2-(2-Carboxy-2,2-difluoro-ethyl)-3-oxo-hexahydro-imidazo[1,5-a]pyrazin-7-ylmethyl]-4-(3,4-difluoro-2-methyl-phenyl)-2-thiazol-2-yl-1,4-dihydro-pyrimidine-5-carboxylic acid ethyl ester]
pEC50 (HBV): 6.82
